This note sets out measurements from patent US9145415B2, “Nitrogen-containing heterocyclic compound or salt thereof” (FUJIFILM Corporation, priority 2012, dated 2015).

One assay concerns MV4-11 cells. Kind of assay: Leukemia cell proliferation inhibition test (ATPlite), MV4-11. Conditions: Homo sapiens, read-out: MV4-11 cell proliferation inhibition effect. Type of assay: cell-based. The method in brief:
(§1)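 Molm-13 or MV4-11 cells at 10,000 cells/well in RPMI with 10% FBS and pen/strep were exposed to serially diluted compound for 72 h at 37 °C, 5% CO2. Total cellular ATP was read by luciferase luminescence. GI50 was taken relative to 0.1% DMSO control, from duplicates by sigmoid non-linear regression.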
A general note: In ATP-based viability assays light output follows the ATP content of the culture.

In another assay the test system is Molm-13 cells. The assay can be described thus: Leukemia cell proliferation inhibition test (ATPlite), Molm-13. Type of assay: cell-based. Conditions: Homo sapiens, read-out: MOLM13 cell proliferation inhibition effect. The method, boiled down:
as §1

The target in assay [1] is T1, human FLT3 protein (FLT3 (WT)) (Homo sapiens, UniProt P36888).
T1 construct: human FLT3 protein (intracellular region, 564 to 993 aa); GST; purchased Carna Biosciences; host or cells: baculovirus expression system
T1 sequence (P36888 564-993): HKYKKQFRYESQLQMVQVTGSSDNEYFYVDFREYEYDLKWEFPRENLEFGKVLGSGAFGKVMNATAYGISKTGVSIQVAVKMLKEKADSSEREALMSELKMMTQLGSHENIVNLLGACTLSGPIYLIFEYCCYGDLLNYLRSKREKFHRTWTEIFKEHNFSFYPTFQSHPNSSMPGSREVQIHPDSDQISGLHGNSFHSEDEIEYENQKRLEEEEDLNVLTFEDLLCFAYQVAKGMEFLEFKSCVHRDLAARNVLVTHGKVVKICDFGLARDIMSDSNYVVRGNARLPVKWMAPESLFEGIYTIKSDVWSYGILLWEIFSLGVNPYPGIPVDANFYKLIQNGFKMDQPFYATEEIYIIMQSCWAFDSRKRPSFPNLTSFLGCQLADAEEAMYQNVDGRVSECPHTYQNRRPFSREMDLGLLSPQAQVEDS
Kind of assay: FLT3 inhibition test (FLT3 enzyme inhibition, time-resolved fluorescence of substrate peptide phosphorylation). Type of assay: biochemical. Conditions: read-out: FLT3 (WT) enzyme inhibition activity. The method, boiled down: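 Substrate peptide phosphorylation detected by time-resolved fluorescence after a 30 min kinase reaction at 25° C with 50 μM ATP (final). Beforehand, compound and FLT3 (WT, 1.2 μg) stood 15 min at 25° C in HEPES buffer pH 7.5 containing MgCl2, NaCl, BSA and DTT.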

Where [2] appears, read: MV4-11, 72 h, MV4-11, 72 hours culture, ATPlite, GI50 per method.
[3] abbreviates: MOLM-13, 72 h, Molm-13, 72 hours culture, ATPlite, GI50 per method.
[4] abbreviates: GST-fused human FLT3 (564 to 993 aa), ATP 50 μM.

Where two headings read alike, the source gives them in different places.

For `CCCNc1nc(Nc2ccc(C#N)cc2)ncc1C#CCCCNC(=O)[C@H](CO)N(C)C(=O)/C=C/CN(C)C` [Compound 7-62, (S,E)-N-(1-((5-(2-((4-Cyanophenyl)amino)-4-(propylamino)pyrimidin-5-yl)-4-pentyn-1-yl)amino)-3-hydroxy-1-oxopropan-2-yl)-4-(dimethylamino)-N-methyl-2-butenamide], the IC50 (with MV4-11 cells (setting [2]); in the assay with Molm-13 cells (setting [3]); in assay [1] (setting [4])) was under 10 nM each time.

Consider `COCCNc1nc(Nc2cccc(F)c2)ncc1C#C[C@@H]1CCC[C@H](NC(=O)[C@H](C)N(C)C(=O)/C=C/CN(C)C)C1` [Compound 22-36], for which the IC50 in the assay with MV4-11 cells (MV4-11, MV4-11 cell) was under 10 nM; with Molm-13 cells (MOLM-13, MOLM13 cell), under 10 nM; in assay [1] (FLT3 (WT)) it was under 10 nM.

In the case of `CCCNc1nc(Nc2cccc(F)c2)ncc1C#CCCCNC(=O)[C@H](C(C)CC)N(C)C(=O)/C=C/CN(C)C` (stereo partly drawn) [Compound 7-12], the IC50 in the assay on MV4-11 cells (setting [2]) is 100 to 1000 nM; in the assay on Molm-13 cells (setting [3]) it was 100 to 1000 nM; in assay [1] (setting [4]), 10 to 100 nM.

In the case of `COCCCNc1nc(Nc2ccc3cn[nH]c3c2)ncc1C#CCCCNC(=O)[C@H](C)N(C)C(=O)/C=C/CN(C)C` [Compound 10-65], the IC50 (with MV4-11 cells (setting [2]); with Molm-13 cells (setting [3]); in assay [1] (setting [4])) was under 10 nM each time.

On to `CNc1nc(Nc2cccc(C#N)c2)ncc1C#C[C@@H]1CCC[C@H](NC(=O)[C@H](C)N(C)C(=O)/C=C/CN(C)C)C1` [Compound 21-1, (E)-N—((S)-1-(((1S,3R)-3-((2-((3-cyanophenyl)amino)-4-(methylamino)pyrimidin-5-yl)ethynyl)cyclohexyl)amino)-1-oxopropan-2-yl)-4-(dimethylamino)-N-methyl-2-butenamide], for which the IC50 (in the assay with MV4-11 cells (setting [2]); with Molm-13 cells (setting [3]); in assay [1] (setting [4])) was under 10 nM in each case.

For `C=CC(=O)N(C)CC(=O)NCCCNC(=O)c1cnc(Nc2ccc3cnccc3c2)nc1NCCC` [Compound 6-6], the IC50 (in the assay on MV4-11 cells (setting [2]); in the assay on Molm-13 cells (setting [3]); in assay [1] (setting [4])) was under 10 nM in each case.

Take `CCCNc1nc(Nc2ccc(C#N)cc2)ncc1C#C[C@@H]1CCC[C@H](NC(=O)CN(C)C(=O)/C=C/CN(C)C)C1` [Compound 13-6]: the IC50 (in the assay with MV4-11 cells (setting [2]); in the assay with Molm-13 cells (setting [3]); in assay [1] (setting [4])) was under 10 nM each time.

On to `C=CC(=O)N(C)CC(=O)Nc1cccc(NC(=O)c2cnc(NCCc3ccncc3)nc2NCCC)c1` [Compound 1-3], for which the IC50 (with MV4-11 cells (setting [2]); in the assay with Molm-13 cells (setting [3]); in assay [1] (setting [4])) was under 10 nM in each case.

Take `COc1ccc(Nc2nc(Nc3cccc(F)c3)ncc2C#CCCCNC(=O)[C@H](C)N(C)C(=O)/C=C/CN(C)C)cc1` [Compound 10-3, (S,E)-4-(Dimethylamino)-N-(1-((5-(2-((3-fluorophenyl)amino)-4-((4-methoxyphenyl)amino)pyrimidin-5-yl)-4-pentyn-1-yl)amino)-1-oxopropan-2-yl)-N-methyl-2-butenamide]: the IC50 (with MV4-11 cells (setting [2]); with Molm-13 cells (setting [3]); in assay [1] (setting [4])) was under 10 nM in each case.

With `CCCNc1nc(NC(=O)Nc2ccncc2)ncc1C(=O)NCCCNC(=O)CN(C)C(=O)/C=C/CN(C)C` [Compound 6-13], the IC50 in the assay on MV4-11 cells (setting [2]) is 100 to 1000 nM; with Molm-13 cells (setting [3]) it was 100 to 1000 nM; in assay [1] (setting [4]), under 10 nM.

In the case of `CCNc1nc(Nc2ccc3c(cnn3C)c2)ncc1C#CCCCNC(=O)[C@H](C)N(C)C(=O)/C=C/CN(C)C` [Compound 10-53], the IC50 (with MV4-11 cells (setting [2]); in the assay with Molm-13 cells (setting [3]); in assay [1] (setting [4])) was under 10 nM throughout.

With `CCCNc1nc(Nc2ccc3c(OC)n[nH]c3c2)ncc1C#CCCCNC(=O)[C@@H]1CCCN1C(=O)/C=C/CN(C)C` [Compound 22-68], the IC50 in the assay on MV4-11 cells (MV4-11, MV4-11 cell) was under 10 nM; in the assay with Molm-13 cells (MOLM-13, MOLM13 cell), under 10 nM; in assay [1] (FLT3 (WT)) it was under 10 nM.

For `C=CC(=O)NCC(=O)NC1CCCC(NC(=O)c2cnc(Nc3ccc(C(N)=O)cc3)nc2NCCC)C1` (stereo not drawn) [Compound 3-2], the figures for the IC50 (in the assay on MV4-11 cells (setting [2]); in the assay on Molm-13 cells (setting [3]); in assay [1] (setting [4])) were 10 to 100 nM, 10 to 100 nM and under 10 nM, respectively.

Turning to `CCCNc1nc(Nc2ccc(C(N)=O)cc2)ncc1C(=O)Nc1cccc(NC(=O)[C@@H]2CCCN2C(=O)/C=C/CN(C)C)c1` [Compound 3-30], the IC50 with MV4-11 cells (setting [2]) is under 10 nM; with Molm-13 cells (setting [3]), 10 to 100 nM; in assay [1] (setting [4]) it was under 10 nM.

Take `C[C@@H](C(=O)NCCC(C)(C)C#Cc1cnc(Nc2ccc(C#N)cc2)nc1NC1CC1)N(C)C(=O)/C=C/CN(C)C` [Compound 9-27]: the IC50 (in the assay with MV4-11 cells (setting [2]); in the assay with Molm-13 cells (setting [3]); in assay [1] (setting [4])) was under 10 nM in each case.

`CCCN(C)c1nc(NCCc2ccncc2)ncc1C#Cc1cccc(NC(=O)[C@H](C)N(C)C(=O)/C=C/CN(C)C)c1` [Compound 12-14, (S,E)-4-(dimethylamino)-N-methyl-N-(1-((3-((4-(methyl(propyl)amino)-2-((2-(pyridin-4-yl)ethyl)amino)pyrimidin-5-yl)ethynyl)phenyl)amino)-1-oxopropan-2-yl)-2-butenamide]: the IC50 (in the assay with MV4-11 cells (setting [2]); in the assay on Molm-13 cells (setting [3]); in assay [1] (setting [4])) was under 10 nM each time.

For `CCCNc1nc(Nc2ccc(C(F)(F)F)cc2)ncc1C#CCCCNC(=O)[C@H](C)N(C)C(=O)/C=C/CN(C)C` [Compound 12-5], the IC50 in the assay on MV4-11 cells (setting [2]) was 10 to 100 nM; in the assay with Molm-13 cells (setting [3]), 10 to 100 nM; in assay [1] (setting [4]) it was under 10 nM.

For the molecule `CNc1ncc(C#C[C@H]2C[C@@H](NC(=O)[C@H](C)N(C)C(=O)/C=C/CN(C)C)C2)c(Nc2ccc(OC)nc2)n1` [Compound 13-22], the IC50 (with MV4-11 cells (setting [2]); in the assay with Molm-13 cells (setting [3]); in assay [1] (setting [4])) was under 10 nM throughout.

On to `C=CC(=O)NCC(=O)N1CCC(NC(=O)c2cnc(NCCc3ccncc3)nc2NCCC)C1` (stereo not drawn) [Compound 6-17], for which the figures for the IC50 (in the assay on MV4-11 cells (setting [2]); with Molm-13 cells (setting [3]); in assay [1] (setting [4])) were 100 to 1000 nM, 100 to 1000 nM and 10 to 100 nM, respectively.

With `CNc1nc(Nc2ccc3[nH]ncc3c2)ncc1C#CCCCNC(=O)[C@H](C)N(C)C(=O)/C=C/CN(C)C` [Compound 10-60], the IC50 (with MV4-11 cells (setting [2]); in the assay on Molm-13 cells (setting [3]); in assay [1] (setting [4])) was under 10 nM in each case.

Turning to `CCCNc1nc(Nc2ccc(C#N)cc2)ncc1C#CCCCNC(=O)[C@H]([C@@H](C)O)N(C)C(=O)/C=C/CN(C)C` [Compound 7-63], the IC50 (in the assay on MV4-11 cells (setting [2]); with Molm-13 cells (setting [3]); in assay [1] (setting [4])) was under 10 nM throughout.

On to `COCCCNc1nc(Nc2ccc3c(cnn3C)c2)ncc1C#CCCCNC(=O)[C@H](C)N(C)C(=O)/C=C/CN(C)C` [Compound 10-55], for which the IC50 (in the assay with MV4-11 cells (setting [2]); in the assay on Molm-13 cells (setting [3]); in assay [1] (setting [4])) was under 10 nM throughout.

As to `CCCNc1nc(Nc2cccc(F)c2)ncc1C#Cc1cccc(NC(=O)[C@H](C)N(C)C(=O)/C=C/CN(C)C)n1` [Compound 8-20], the IC50 in the assay with MV4-11 cells (setting [2]) was 10 to 100 nM; in the assay on Molm-13 cells (setting [3]), 100 to 1000 nM; in assay [1] (setting [4]), 10 to 100 nM.

On to `CCCCN(CC(=O)NCCCC#Cc1cnc(Nc2ccc(C#N)cc2)nc1NCCC)C(=O)/C=C/CN(C)C` [Compound 7-70], for which the IC50 (in the assay on MV4-11 cells (setting [2]); in the assay on Molm-13 cells (setting [3]); in assay [1] (setting [4])) was under 10 nM in each case.

For `CC[C@@H](C(=O)NCCCC#Cc1cnc(Nc2ccc(F)nc2)nc1Nc1cccc(F)c1)N(C)C(=O)/C=C/CN(C)C` [Compound 10-32], the IC50 (in the assay with MV4-11 cells (setting [2]); in the assay on Molm-13 cells (setting [3]); in assay [1] (setting [4])) was under 10 nM throughout.

In the case of `CCCNc1nc(Nc2ccc(C(N)=O)cc2)ncc1C(=O)NCCCNC(=O)CN(C)C(=O)/C=C/CN(C)C` [Compound 5-5], the IC50 with MV4-11 cells (setting [2]) is 10 to 100 nM; in the assay on Molm-13 cells (setting [3]), 10 to 100 nM; in assay [1] (setting [4]), under 10 nM.
